Measurements taken from patent US12275744B2, “Pyrazole and imidazole derivatives, compositions and methods as orexin antagonists” (HAGER BIOSCIENCES, LLC, priority 2019, dated 2025).

How the values were obtained:
[1] = target: T1, human orexin-1 receptor (Homo sapiens, UniProt O43613); assay: Intracellular calcium measurement (FLIPR), antagonism of orexin-A response in CHO cells expressing OX1R; conditions: for inhibition at 1 µM: CHO, read-out: % Inhibition of OX1R @1 uM compound
T1 sequence (O43613 1-425): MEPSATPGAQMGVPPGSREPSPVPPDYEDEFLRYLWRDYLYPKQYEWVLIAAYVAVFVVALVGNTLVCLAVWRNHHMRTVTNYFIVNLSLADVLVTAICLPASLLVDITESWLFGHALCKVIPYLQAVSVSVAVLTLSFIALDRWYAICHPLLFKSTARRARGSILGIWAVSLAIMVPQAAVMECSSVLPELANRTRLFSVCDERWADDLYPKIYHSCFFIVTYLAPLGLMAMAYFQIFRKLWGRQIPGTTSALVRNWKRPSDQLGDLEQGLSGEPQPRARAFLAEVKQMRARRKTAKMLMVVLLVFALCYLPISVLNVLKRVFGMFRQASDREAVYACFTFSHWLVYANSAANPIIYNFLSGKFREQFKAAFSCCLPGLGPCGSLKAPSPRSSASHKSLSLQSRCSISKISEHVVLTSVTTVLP
Description: (§1) In Vitro Assay: Intracellular Calcium Measurements:
(§2) Chinese hamster ovary (CHO) cells expressing the human orexin-1 receptor and the human orexin-2 receptor, respectively, are grown in culture medium (Ham F-12 with L-Glutamine) containing 300 μg/mL G418, 100 U/mL penicillin, 100 μg/mL streptomycin and 10% heat inactivated fetal calf serum (FCS). The cells are seeded at 20,000 cells/well into 384-well black clear bottom sterile plates (Greiner). The seeded plates are incubated overnight at 37° C. in 5% CO2.
(§3) Within the Fluorescent Imaging Plate Reader (FLIPR Tetra, Molecular Devices), antagonists are added to the plate in a volume of 10 μL/well, incubated for 120 min and finally 10 μL/well of agonist is added. Fluorescence is measured for each well at 1 second intervals, and the height of each fluorescence peak is compared to the height of the fluorescence peak-induced by 3 nM orexin-A with vehicle in place of antagonist. […] Optimized conditions were achieved by adjustment of pipetting speed and cell splitting regime. The calculated IC50 values may fluctuate depending on the daily cellular assay performance.

[2] = target: T2, human orexin-2 receptor (Homo sapiens, UniProt O43614); assay: Intracellular calcium measurement (FLIPR), antagonism of orexin-A response in CHO cells expressing OX2R; conditions: for inhibition at 1 µM: CHO, read-out: % Inhibition of OX2R @1 uM compound
T2 sequence (O43614 1-444): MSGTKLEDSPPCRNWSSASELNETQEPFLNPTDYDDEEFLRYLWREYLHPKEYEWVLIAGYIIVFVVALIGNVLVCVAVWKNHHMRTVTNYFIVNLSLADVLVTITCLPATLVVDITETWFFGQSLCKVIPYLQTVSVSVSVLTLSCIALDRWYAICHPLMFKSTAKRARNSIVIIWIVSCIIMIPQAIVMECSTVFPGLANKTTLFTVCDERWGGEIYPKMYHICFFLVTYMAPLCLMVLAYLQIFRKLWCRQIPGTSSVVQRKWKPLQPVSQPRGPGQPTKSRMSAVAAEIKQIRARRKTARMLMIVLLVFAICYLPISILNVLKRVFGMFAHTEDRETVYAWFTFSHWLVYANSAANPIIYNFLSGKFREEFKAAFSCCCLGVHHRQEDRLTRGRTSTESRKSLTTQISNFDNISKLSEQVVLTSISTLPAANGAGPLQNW
Description: as §1, §2, §3

[3] = target: T3, OX1R (Homo sapiens, UniProt O43613); conditions: relative to Orexin B; Kodadek and Cai 2010; cited from earlier work
T3 sequence (O43613 1-425): T1 sequence (O43613 1-425)

| IC50 [1] [nM] | Kb [1] [nM] | inhibition at 1 µM [1] [%] | inhibition at 1 µM [2] [%] | IC50 [2] [nM] | Kb [2] [nM] | Compound | affinity for OX1R, higher than Orexin B [3] |
| --- | --- | --- | --- | --- | --- | --- | --- |
| 136 | 29 | 71 | 0.4 | – | – | CCc1cnc(NC[C@@H]2[C@H](C)CCCN2C(=O)c2c(-c3ccccc3)nn3c2COCC3)nc1 [Example 5] | – |
| 11 | 2 | 84.9 | 49.6 | – | – | O=C(c1c(-c2ccccc2)nn2ccccc12)N1CCC[C@H]1COc1ccc(C(F)(F)F)cn1 [Example 20] | – |
| 39 | 8 | 67.1 | 21.6 | – | – | O=C(c1c(-c2ccccc2)nc2ccccn12)N1CCC[C@H]1CNc1ccc(C(F)(F)F)cn1 [Example 11] | – |
| 5 | 1 | 86.1 | 13.8 | – | – | C[C@@H]1CCCN(C(=O)c2c(-c3ccccc3)nc3ccccn23)[C@@H]1CNc1ccc(C(F)(F)F)cn1 [Example 8] | – |
| – | – | 38.8 | 26.9 | – | – | CCc1cnc(OC[C@@H]2CCCN2C(=O)c2c(-c3ccccc3)nn3ccccc23)nc1 [Example 21] | – |
| – | – | 14 | 14.2 | – | – | CCc1cnc(NC[C@@H]2CCCN2C(=O)c2c(-c3ccccc3)nn3c2COCC3)nc1 [Example 3] | – |
| 9 | 2 | 80.1 | 2.44 | – | – | C[C@@H]1CCCN(C(=O)c2c(-c3ccccc3)nn3c2COCC3)[C@@H]1CNc1ccc(C(F)(F)F)cn1 [Example 7] | – |
| 293 | 62 | 70 | 29.6 | – | – | O=C(c1c(-c2ccccc2)nc2ccccn12)N1CCC[C@H]1COc1ccc(C(F)(F)F)cn1 [Example 18] | – |
| 59 | 12 | 76.8 | -2.51 | – | – | CCc1cnc(NC[C@@H]2[C@H](C)CCCN2C(=O)c2c(-c3ccccc3)nc3ccccn23)nc1 [Example 9] | – |
| – | – | -10.8 | 11.2 | – | – | CCc1cnc(OC[C@@H]2CCCN2C(=O)c2c(-c3ccccc3)nc3ccccn23)nc1 [Example 19] | – |
| 122 | 26 | 62.8 | 20.9 | – | – | O=C(c1c(-c2ccccc2)nn2c1COCC2)N1CCC[C@H]1CNc1ccc(C(F)(F)F)cn1 [Example 2] | – |
| – | – | 96.6 | 78.5 | 70 | 9 | O=C(c1c(-c2ccccc2)nn2ccccc12)N1CCC[C@H]1Cn1ccc(-c2ccccc2)n1 [Example 13] | – |
| 33 | 7 | 69.7 | 28.2 | – | – | O=C(c1c(-c2ccccc2)nn2c1COCC2)N1CCC[C@H]1Cn1ccc(-c2ccccc2)n1 [Example 1] | – |
| – | – | 85.7 | 12.8 | – | – | CCc1cnc(NC[C@@H]2[C@H](C)CCCN2C(=O)c2c(-c3ccccc3)nn3ccccc23)nc1 [Example 4] | – |
| 178 | 37 | 54.1 | 37.3 | – | – | CCc1cnc(NC[C@@H]2CCCN2C(=O)c2c(-c3ccccc3)nn3ccccc23)nc1 [Example 15] | – |
| 3.5 | 0.7 | 86.9 | 43.5 | – | – | O=C(c1c(-c2ccccc2)nn2ccccc12)N1CCC[C@H]1CNc1ccc(C(F)(F)F)cn1 [Example 10] | – |
| – | – | 0.59 | 7.77 | – | – | CCc1cnc(OC[C@@H]2CCCN2C(=O)c2c(-c3ccccc3)nn3c2COCC3)nc1 [Example 16] | – |
| 2 | 0.5 | 88.9 | 46.1 | – | – | O=C(c1c(-c2ccccc2)nc2ccccn12)N1CCC[C@H]1Cn1ccc(-c2ccccc2)n1 [Example 12] | – |
| – | – | 45.1 | 5.78 | – | – | O=C(c1c(-c2ccccc2)nn2c1COCC2)N1CCC[C@H]1COc1ccc(C(F)(F)F)cn1 [Example 17] | – |
| 8 | 1.7 | 87.6 | 38.5 | – | – | C[C@@H]1CCCN(C(=O)c2c(-c3ccccc3)nn3ccccc23)[C@@H]1CNc1ccc(C(F)(F)F)cn1 [Example 6] | – |
| – | – | 14.8 | 18.3 | – | – | CCc1cnc(NC[C@@H]2CCCN2C(=O)c2c(-c3ccccc3)nc3ccccn23)nc1 [Example 14] | – |
| – | – | – | – | – | – | Orexin A: excitatory hypothalamic neuropeptide, a 33 amino acid peptide; endogenous ligand of OX1R and OX2R (QPLPDCCRQKTCSCRLYELLHGAGNHAAGILTL; Orexin-A; UniProt O43612 34-66, looked up) | about 100 fold |
